Test results published in US20260055051A1, “Compound with anti-tumor activity, preparation method therefor, and use thereof” (Ocean University of China, priority 2022, published 2026).

Columns and labels:
[1] = Body weight of tumor-transplanted mice during administration; type: in vivo; details: A549, HCT116 and HT-29 transplanted mice, during administration period
Protocol: (§1) BALB/c nude mice were subcutaneously inoculated with A549, HCT116 and HT-29 cells to establish tumor transplantation models. • Solvent Control Group: 2% DMSO+normal saline+sodium carbonate (the molar ratio of the compound to sodium carbonate is 1:2) • 5-fluorouracil control group: 5-fluorouracil injection (20 mg/kg);
(§2) Test compound group: 1 mg of a test compound was fully dissolved in […] DMSO, and then diluted with normal saline to 0.5 mg/mL. 2 mL was used each time, freshly prepared before use on the same day.
(§3) Eight mice were in each group.
(§4) The solvent control group and the test compound group were administered at a dose of 10 mL/kg via tail vein injection (the dose for each administration was calculated based on the body weight on that day), 5 times a week, for a total of 15 times. The animals were euthanized after the last administration.
(§5) The 5-fluorouracil control group was administered twice a week for a total of 6 times.
(§6) The body weight and tumor diameter were measured twice a week during the administration period. Tumors and the spleen were removed and weighed after euthanasia. The tumor volume, relative tumor volume (RTV), relative tumor growth rate (T/C %), tumor volume inhibition rate (IRTV%), and tumor weight inhibition rate (IRTW%) were calculated. Data for animals that died accidentally were only listed but excluded from statistical analysis.

A549 cells = assay: A549 cell-BALB/c nude mouse subcutaneous tumor transplantation experiment; type: in vivo, BALB/c nude mice; details: A549 model, test compound 0.5 mg/mL at 10 mL/kg tail vein, 15 times, 6 times; for average tumor volume at the end of the experiment: 5 times a week, 5-fu 20 mg/kg twice a week; for inhibitory effect (inhibition rate of average tumor weight, FIG. 6): 5-fu 20 mg/kg
Protocol: as §1, §2, §3, §4, §5, §6

HCT116 cells = assay: HCT116 cell-BALB/c nude mouse subcutaneous tumor transplantation experiment; type: in vivo, BALB/c nude mice; details: HCT116 model, test compound 0.5 mg/mL at 10 mL/kg tail vein, 15 times, 6 times; for average tumor volume at the end of the experiment: 5 times a week, 5-fu 20 mg/kg twice a week; for inhibitory effect (inhibition rate of average tumor weight, FIG. 6): 5-fu 20 mg/kg
Protocol: as §1, §2, §3, §4, §5, §6

HT-29 cells = assay: HT-29 cell-BALB/c nude mouse subcutaneous tumor transplantation experiment; type: in vivo, BALB/c nude mice; details: HT-29 model, test compound 0.5 mg/mL at 10 mL/kg tail vein, 15 times, 6 times; for average tumor volume at the end of the experiment: 5 times a week, 5-fu 20 mg/kg twice a week; for inhibitory effect (inhibition rate of average tumor weight, FIG. 6): 5-fu 20 mg/kg
Protocol: as §1, §2, §3, §4, §5, §6

[2] = system: human colon cancer cell line HCT116; assay: In vitro tumor cell proliferation inhibition assay (SRB method), HCT116; type: cell-based; details: SRB; for IC50: HCT-116, 72 hours, mean of triplicate experiments, read-out: IC50 against HCT116; for inhibition at 10 µM: HCT-116, test compounds 10 μM, 72 hours, read-out: Inhibition rate on HCT116
Protocol: (§7) Sulforhodamine B Colorimetric Method (SRB Method) and MTT Colorimetric Method (MTT Method)
(§8) Human lung cancer cell line A549, human liver cancer cell line HepG2, human colon cancer cell line HCT116, human colon cancer cell line HT-29, human leukemia cell line K562, human cervical cancer cell line hela, and human breast cancer cell line MCF-7, all provided by the Shanghai Cell Bank, Chinese Academy of Sciences.
(§9) A549, HepG2, HCT116, HT-29, K562, hela, and MCF-7 cells were cultured respectively in 1640, DMEM, 5A, 5A, 1640, DMEM, and 1640 culture media containing 10 wt % heat-inactivated FBS (fetal bovine serum), 2 mM L-glutamine, 100 U/mL penicillin and […] streptomycin, in a cell incubator at 37° C. and 5 vol % CO2. The medium was replaced every two days. After the A549, HepG2, HCT116, HT-29, hela, and MCF-7 cells were confluent, they were digested with 0.05% (w/v) trypsin-EDTA at 37° C., passaged, and maintained in the logarithmic growth phase suitable for testing. The K562 suspension cells were passaged without digestion, and maintained in the logarithmic growth phase suitable for testing. The A549, HepG2, HCT116, HT-29, K562, hela, and MCF-7 cells in the logarithmic growth phase were inoculated to 96-well plates at 5000, 5000, 5000, 5000, 6000, 5000, 5000 per well, respectively, and cultured at 37° C. for 24 h.
(§10) Then various concentrations of test samples were added. The positive control group was doxorubicin hydrochloride (final concentration was 1 μM), the solvent control group was an equal volume of DMSO, and the blank control group was an equal volume of a culture medium, with 4 replicate wells for each concentration. After the A549, HepG2, HCT116, HT-29, hela, and MCF-7 cells were treated with the test drugs for 72 hours, the cells in each well were fixed with 50% (m/v) cold trichloroacetic acid (TCA) and stained with SRB. Then […] of Tris solution was added, and the OD value at the wavelength of 540 nm was measured using a microplate reader. For K562 cells, after 72 hours of treatment with the test drugs, […] of 5 mg/mL MTT was added, and the cells were incubated at 37° C. for 4 hours. Next, […] of a triplet solution (10% SDS, 5% isobutanol, 12 mM HCl) was added, followed by further incubation for 12 to 20 hours. The OD value at the wavelength of 570 nm was measured using a microplate reader.
(§11) The tumor cell growth inhibition rate was calculated according to the following equation: […]
(§12) in the equation, • OD540 control well is the absorbance of the control group; • OD540 dosing well is the absorbance of the test group.
(§13) IC50 values of the test drugs (calculated by GraphPad Prism 5 software) were the means of the results of triplicate experiments.

[3] = system: A549, HepG2, HCT116, HT-29, K562, hela, and MCF-7 cell lines; assay: In vitro tumor cell proliferation inhibition assay, summary over all 7 types of cells; type: cell-based; details: Homo sapiens, upper bound over A549, HepG2, HCT116, HT-29, K562, hela, MCF-7
Protocol: as §7, §8, §9, §10, §11, §12, §13

[4] = system: human breast cancer cell line MCF-7; assay: In vitro tumor cell proliferation inhibition assay (SRB method), MCF-7; type: cell-based; details: MCF7, 72 hours, SRB, mean of triplicate experiments, read-out: IC50 against MCF-7
Protocol: as §7, §8, §9, §10, §11, §12, §13

[5] = system: human leukemia cell line K562; assay: In vitro tumor cell proliferation inhibition assay (MTT method), K562; type: cell-based; details: 72 hours, mean of triplicate experiments, read-out: IC50 against K562
Protocol: as §7, §8, §9, §10, §11, §12, §13

[6] = system: human liver cancer cell line HepG2; assay: In vitro tumor cell proliferation inhibition assay (SRB method), HepG2; type: cell-based; details: 72 hours, SRB; for IC50: mean of triplicate experiments, read-out: IC50 against HepG2; for inhibition at 10 µM: test compounds 10 μM, read-out: Inhibition rate on HepG2
Protocol: as §7, §8, §9, §10, §11, §12, §13

[7] = system: human colon cancer cell line HT-29; assay: In vitro tumor cell proliferation inhibition assay (SRB method), HT-29; type: cell-based; details: 72 hours, SRB, mean of triplicate experiments, read-out: IC50 against HT-29
Protocol: as §7, §8, §9, §10, §11, §12, §13

[8] = system: human lung cancer cell line A549; assay: In vitro tumor cell proliferation inhibition assay (SRB method), A549; type: cell-based; details: 72 hours, SRB; for IC50: mean of triplicate experiments, read-out: IC50 against A549; for inhibition at 10 µM: test compounds 10 μM, read-out: Inhibition rate on A549
Protocol: as §7, §8, §9, §10, §11, §12, §13

[9] = system: human cervical cancer cell line hela; assay: In vitro tumor cell proliferation inhibition assay (SRB method), hela; type: cell-based; details: 72 hours, SRB, mean of triplicate experiments, read-out: IC50 against hela
Protocol: as §7, §8, §9, §10, §11, §12, §13

Row | IC50 [2] [µM] | IC50 [3] [µM] | IC50 [4] [µM] | IC50 [5] [µM] | IC50 [6] [µM] | IC50 [7] [µM] | IC50 [8] [µM] | IC50 [9] [µM] | Structure (SMILES) | body weight compared to the solvent control (FIG. 2) [1] | average tumor volume at the end of the experiment (A549 cells) [mm^3] | inhibitory effect (inhibition rate of average tumor weight, FIG. 6) (A549 cells) [%] | average tumor volume at the end of the experiment (HCT116 cells) [mm^3] | inhibitory effect (inhibition rate of average tumor weight, FIG. 6) (HCT116 cells) [%] | average tumor volume at the end of the experiment (HT-29 cells) [mm^3] | inhibitory effect (inhibition rate of average tumor weight, FIG. 6) (HT-29 cells) [%] | inhibition at 10 µM [2] [%] | inhibition at 10 µM [6] [%] | inhibition at 10 µM [8] [%]
1 | – | – | – | – | – | – | – | – | O=c1[nH]cc(F)c(=O)[nH]1 [Compound 5-fu, 5-fluorouracil, reference compound] | significant weight loss | 322.03 | 43.11 | 599.83 | 44.81 | 658.02 | 44.60 | – | – | –
2 | 7.44 | < 35.5 | 5.75 | 12.7 | 8.61 | 28.9 | 8.11 | 9.68 | Cc1cc(O)c(CNC(=O)CCl)c(C)c1Cl [Compound I-7, N-(2,4-dimethyl-3-chloro-6-hydroxybenzyl) chloroacetamide] | – | 559.37 | 33.56 | 624.48 | – | – | 26.52 | 95.1 | 95.8 | 55
3 | 7.36 | < 35.5 | 6.98 | 9.74 | 8.36 | 35.4 | 5.95 | 8.86 | CC(=O)NCc1c(C)cc(O)c(C)c1C [Compound I-6, N-(2,3,6-trimethyl-4-hydroxybenzyl) acetamide] | – | 492.12 | 35.19 | – | – | 559.37 | 32.07 | 96.6 | 81.1 | 94.9
4 | 3.96 | < 35.5 | 5.75 | 9.36 | 7.9 | 17.6 | 6.57 | 9.38 | COc1c(CNC(=O)CCl)c(C)cc(C)c1CNC(=O)CCl [Compound I-4, N-(2-methoxy-3-chloroacetamidomethyl-4,6-dimethylbenzyl) chloroacetamide] | – | – | 22.05 | 574.36 | 29.86 | – | 23.90 | 69.3 | 82.9 | 69
